Results taken from patent US9029531B2 (Agios Pharmaceuticals, Inc., priority 2012, dated 2015).

target: T1, glutaminase (GAC) (Homo sapiens, UniProt O94925); assay: Glutaminase coupled endpoint enzymatic assay (Example A); type: biochemical; settings: inhibition of glutaminase; assay of Example A or Example B
T1 sequence (O94925 55-598 isoform O94925-3 limits assumed): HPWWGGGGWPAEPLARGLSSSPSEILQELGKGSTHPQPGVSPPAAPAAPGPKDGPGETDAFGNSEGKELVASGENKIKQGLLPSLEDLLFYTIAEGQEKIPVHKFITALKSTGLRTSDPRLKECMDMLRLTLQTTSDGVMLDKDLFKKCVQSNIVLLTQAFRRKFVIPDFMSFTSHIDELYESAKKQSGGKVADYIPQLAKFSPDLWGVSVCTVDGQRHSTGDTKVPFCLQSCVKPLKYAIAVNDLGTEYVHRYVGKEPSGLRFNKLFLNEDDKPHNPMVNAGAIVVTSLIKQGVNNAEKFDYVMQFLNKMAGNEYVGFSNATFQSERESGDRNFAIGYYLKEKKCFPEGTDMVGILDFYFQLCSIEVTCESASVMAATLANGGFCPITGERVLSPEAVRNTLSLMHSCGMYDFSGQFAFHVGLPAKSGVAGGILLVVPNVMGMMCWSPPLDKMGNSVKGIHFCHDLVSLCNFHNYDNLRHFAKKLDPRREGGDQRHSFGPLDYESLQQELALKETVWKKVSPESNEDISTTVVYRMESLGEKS
Description: In certain embodiments, exemplary compounds of Formula I include the compounds described in Table 1 and in the Examples. A compound described herein may be tested for its ability to inhibit glutaminase, e.g., by an assay as described in the Examples. For simplicity, the inhibition activity of these compounds is represented as an IC50 tested in an assay of Example A or Example B in Table 1. […] “N/A” refers to compounds wherein the IC50 is unavailable.
In this example, the enzymatic activity of glutaminase is measured through a coupled endpoint assay. Glutamine and phosphate are supplied to GAC at a concentration equal to Km and AC50, respectively, and GAC concentration is adjusted to give a linear reaction for 60 minutes. The glutamate produced is converted to 2-OG by a kinetic excess of glutamate dehydrogenase. This second step is configured for 2×Km for NAD, since excess NAD is inhibitory. However, a kinetic excess of the third coupling enzyme, diaphorase, recycles NAD from NADH to keep the NAD concentration constant during the timecourse of the assay. Diaphorase, also supplied in kinetic excess, oxidizes NADH produced by GDH back to NAD with the concomitant reduction of rezasurin to the highly fluorescent resorufin. Resorufin in measured after the assay is stopped with SDS by Ex544/Em590. A reduction in the signal indicates inhibition of some component of the coupled enzyme system. Prospective hits are counterscreened against GDH/diaphorase alone to remove hits to the coupling enzyme system in a second assay.
2. Buffers • 2× Buffer (300 mM NaCl, 100 mM HEPES pH 8.5, 0.1% BSA, 0.5 mM EDTA, 100 mM sodium phosphate pH 8.5) • 5× Substrate Mix (1× Buffer final concentration, with 13 mM glutamine, 100 μM resazurin, 50 μg/ml diaphorase) • 1.2× Enzyme Mix (1× Buffer final concentration, with 0.875 μg/ml GAC, 1.56 mM NAD, 6.25 units/ml GDH) • Stop Mix (6% SDS in ddH2O) Reaction Procedure • 1. Add 1 μl compound in 100% DMSO • 2. Add 40 μl of Enzyme Mix and incubate for 60 minute at room temperature • 3. Add 10 μl of Substrate Mix to start reaction • 4. Stop reaction with 25 μl of 6% SDS and read Ex544 Em 590

SMILES	IC50
O=C(Cc1ccccc1[N+](=O)[O-])Nc1nnc([C@H]2CCC[C@H](c3nnc(NC(=O)Cc4ccccc4[N+](=O)[O-])s3)C2)s1 [Compound 57, N,N′-(5,5′-((1S,3S)-cyclohexane-1,3-diyl)bis(1,3,4-thiadiazole-5,2-diyl))bis(2-(2-nitrophenyl)acetamide)]	100 to 500 nM
Nc1nnc([C@@H]2CCC[C@@H](c3nnc(NC(=O)Cc4ccccn4)s3)C2)s1 [Compound 58]	1000 to 2000 nM
O=C(Cc1cccs1)Nc1nnc([C@H]2CCC[C@H](c3nnc(NC(=O)Cc4cccs4)s3)C2)s1 [Compound 59, N,N′-(5,5′-((1S,3S)-cyclohexane-1,3-diyl)bis(1,3,4-thiadiazole-5,2-diyl))bis(2-(thiophen-2-yl)acetamide)]	< 100 nM
CSCC(=O)Nc1nnc([C@H]2CCC[C@H](c3nnc(NC(=O)CSC)s3)C2)s1 [Compound 60, N,N′-(5,5′-((1S,3S)-cyclohexane-1,3-diyl)bis(1,3,4-thiadiazole-5,2-diyl))bis(2-(methylthio)acetamide)]	500 to 1000 nM
COc1ccccc1CC(=O)Nc1nnc(C2CCC(c3nnc(NC(=O)Cc4ccccc4OC)s3)C2)s1 (stereo not shown) [Compound 67]	100 to 500 nM
COc1cccc(CC(=O)Nc2nnc(C3CCC(c4nnc(NC(=O)Cc5cccc(OC)c5)s4)C3)s2)c1 (stereo not shown) [Compound 68]	100 to 500 nM
COc1ccccc1CC(=O)Nc1nnc([C@H]2CCC[C@H](c3nnc(NC(=O)Cc4ccccn4)s3)C2)s1 [Compound 79, 2-(2-methoxyphenyl)-N-(5-((1S,3S)-3-(5-(2-(pyridin-2-yl)acetamido)-1,3,4-thiadiazol-2-yl)cyclohexyl)-1,3,4-thiadiazol-2-yl)acetamide]	< 100 nM
COc1cccc(CC(=O)Nc2nnc([C@H]3CCC[C@H](c4nnc(NC(=O)Cc5ccccn5)s4)C3)s2)c1 [Compound 81, 2-(3-methoxyphenyl)-N-(5-((1S,3S)-3-(5-(2-(pyridin-2-yl)acetamido)-1,3,4-thiadiazol-2-yl)cyclohexyl)-1,3,4-thiadiazol-2-yl)acetamide]	< 100 nM
COc1cccc(CC(=O)Nc2nnc([C@H]3CCC[C@H](c4nnc(NC(C)=O)s4)C3)s2)c1 [Compound 90, N-(5-((1S,3S)-3-(5-acetamido-1,3,4-thiadiazol-2-yl)cyclohexyl)-1,3,4-thiadiazol-2-yl)-2-(3-methoxyphenyl)acetamide]	100 to 500 nM
CC(=O)Nc1nnc([C@H]2CCC[C@H](c3nnc(NC(=O)Cc4ccccn4)s3)C2)s1 [Compound 93, N-(5-((1S,3S)-3-(5-acetamido-1,3,4-thiadiazol-2-yl)cyclohexyl)-1,3,4-thiadiazol-2-yl)-2-(pyridin-2-yl)acetamide]	< 100 nM
COc1ccccc1CC(=O)Nc1nnc([C@H]2CCC[C@H](c3nnc(NC(C)=O)s3)C2)s1 [Compound 94, N-(5-((1S,3S)-3-(5-acetamido-1,3,4-thiadiazol-2-yl)cyclohexyl)-1,3,4-thiadiazol-2-yl)-2-(2-methoxyphenyl)acetamide]	< 100 nM
N#Cc1ccccc1CC(=O)Nc1nnc(C2CCC(c3nnc(NC(=O)Cc4ccccc4C#N)s3)C2)s1 (stereo not shown) [Compound 95]	100 to 500 nM
N#Cc1ccc(CC(=O)Nc2nnc(C3CCC(c4nnc(NC(=O)Cc5ccc(C#N)cc5)s4)C3)s2)cc1 (stereo not shown) [Compound 96]	100 to 500 nM
N#Cc1cccc(CC(=O)Nc2nnc(C3CCC(c4nnc(NC(=O)Cc5cccc(C#N)c5)s4)C3)s2)c1 (stereo not shown) [Compound 97]	100 to 500 nM
O=C(Cc1ccccn1)Nc1nnc([C@@H]2CCC[C@H](c3nnc(NC(=O)Cc4ccccn4)s3)C2)s1 [Compound 102]	100 to 500 nM
O=C(Cc1cccnc1)Nc1nnc(C2CCC(c3nnc(NC(=O)Cc4cccnc4)s3)C2)s1 (stereo not shown) [Compound 103]	100 to 500 nM
COc1cccc(CC(=O)Nc2nnc([C@@H]3CC[C@H](c4nnc(NC(=O)Cc5cccc(OC)c5)s4)C3)s2)c1 [Compound 107]	100 to 500 nM
COc1cccc(CC(=O)Nc2nnc([C@@H]3CC[C@@H](c4nnc(NC(=O)Cc5cccc(OC)c5)s4)C3)s2)c1 [Compound 108]	< 100 nM
COc1ccc(CC(=O)Nc2nnc(C3CCC(c4nnc(NC(=O)Cc5ccc(OC)cc5)s4)C3)s2)cc1 (stereo not shown) [Compound 109]	100 to 500 nM
O=C(Cc1cccc([N+](=O)[O-])c1)Nc1nnc(C2CCC(c3nnc(NC(=O)Sc4cccc([N+](=O)[O-])c4)s3)C2)s1 (stereo not shown) [Compound 110]	100 to 500 nM
COc1ccccc1CC(=O)Nc1nnc([C@@H]2CC[C@@H](c3nnc(NC(=O)Cc4ccccc4OC)s3)C2)s1 [Compound 117]	500 to 1000 nM
O=C(Cc1cccc(Br)n1)Nc1nnc([C@H]2CCC[C@H](c3nnc(NC(=O)Cc4cccc(Br)n4)s3)C2)s1 [Compound 118, N,N′-(5,5′-((1S,3S)-cyclohexane-1,3-diyl)bis(1,3,4-thiadiazole-5,2-diyl))bis(2-(6-bromopyridin-2-yl)acetamide)]	< 100 nM
COc1ccnc(CC(=O)Nc2nnc([C@@H]3CCC[C@@H](c4nnc(NC(=O)Cc5cc(OC)ccn5)s4)C3)s2)c1 [Compound 119]	< 100 nM
COc1cccc(CC(=O)Nc2nnc(C3CCCCC(c4nnc(NC(=O)Cc5cccc(OC)c5)s4)C3)s2)c1 (stereo not shown) [Compound 120]	500 to 1000 nM
COc1ccc(CC(=O)Nc2nnc(C3CCCCC(c4nnc(NC(=O)Cc5ccc(OC)cc5)s4)C3)s2)cc1 (stereo not shown) [Compound 121]	1000 to 2000 nM

The next lines start with the values.

IC50	SMILES
1000 to 2000 nM	O=C(Cc1ccccn1)Nc1nnc(C2CCCCC(c3nnc(NC(=O)Cc4ccccn4)s3)C2)s1 (stereo not shown) [Compound 122]
1000 to 2000 nM	COc1ccccc1CC(=O)Nc1nnc(C2CCCCC(c3nnc(NC(=O)Cc4ccccc4OC)s3)C2)s1 (stereo not shown) [Compound 123]
1000 to 2000 nM	N#Cc1cccc(CC(=O)Nc2nnc(C3CCCCC(c4nnc(NC(=O)Cc5cccc(C#N)c5)s4)C3)s2)c1 (stereo not shown) [Compound 124]
1000 to 2000 nM	COc1ccccc1CC(=O)Nc1nnc([C@@H]2CCCC[C@H](c3nnc(NC(=O)Cc4ccccc4OC)s3)C2)s1 [Compound 125]
100 to 500 nM	O=C(Cc1cccnc1)Nc1nnc(C2CCCCC(c3nnc(NC(=O)Cc4cccnc4)s3)C2)s1 (stereo not shown) [Compound 126]
500 to 1000 nM	N#Cc1ccccc1CC(=O)Nc1nnc(C2CCCCC(c3nnc(NC(=O)Cc4ccccc4C#N)s3)C2)s1 (stereo not shown) [Compound 127]
500 to 1000 nM	COc1cccc(CC(=O)Nc2nnc([C@@H]3CCCC[C@H](c4nnc(NC(=O)Cc5cccc(OC)c5)s4)C3)s2)c1 [Compound 128]
500 to 1000 nM	COc1cccc(CC(=O)Nc2nnc([C@@H]3CCCC[C@@H](c4nnc(NC(=O)Cc5cccc(OC)c5)s4)C3)s2)c1 [Compound 129]
1000 to 2000 nM	COc1ccc(CC(=O)Nc2nnc([C@@H]3CCCC[C@@H](c4nnc(NC(=O)Cc5ccc(OC)cc5)s4)C3)s2)cc1 [Compound 130]
< 100 nM	O=C(Cc1cccc2c1OCO2)Nc1nnc([C@H]2CCC[C@H](c3nnc(NC(=O)Cc4cccc5c4OCO5)s3)C2)s1 [Compound 218, N,N′-(5,5′-((1S,3S)-cyclohexane-1,3-diyl)bis(1,3,4-thiadiazole-5,2-diyl))bis(2-(benzo[d][1,3]dioxol-4-yl)acetamide)]
1000 to 2000 nM	O=C(Cc1cccc(OC(F)(F)F)c1)Nc1nnc([C@H]2CCC[C@H](c3nnc(NC(=O)Cc4cccc(OC(F)(F)F)c4)s3)C2)s1 [Compound 219, N,N′-(5,5′-((1S,3S)-cyclohexane-1,3-diyl)bis(1,3,4-thiadiazole-5,2-diyl))bis(2-(3-(trifluoromethoxy)phenyl)acetamide)]
100 to 500 nM	O=C(Cc1cccc(Br)c1)Nc1nnc([C@H]2CCC[C@H](c3nnc(NC(=O)Cc4cccc(Br)c4)s3)C2)s1 [Compound 220, N,N′-(5,5′-((1S,3S)-cyclohexane-1,3-diyl)bis(1,3,4-thiadiazole-5,2-diyl))bis(2-(3-bromophenyl)acetamide)]
